Consider 34 compounds from patent US20230126310A1 (priority 2020, published 2023).

Assay [1] deals with SARS-CoV-2. As to conditions: 10 µM.
The test system of assay [2] is SARS-CoV-2. Briefly: microbe, parasite or virus in culture. To be noted: Severe acute respiratory syndrome coronavirus 2, Caco-2, 48 h; for inhibition at 10 µM: read-out: % Inh. (% Inhibition of SARS-CoV-2); for IC50: read-out: pIC50 (converted).

pIC50: −log10 of the molar value. Where a name gives a salt, the structure may show the parent alone. Read-outs that look alike come from different tables or passages of the source.

Regarding `c1ccc(CCCCN2CCC(c3ccccc3)CC2)cc1` [4-PPBP], the “% Inh. (% Inhibition of SARS-CoV-2)” value in the assay with SARS-CoV-2 [1] is 63.1%.

Take `Cc1ccc(CC2(O)CCN(CCOc3ccc(O)cc3)CC2)cc1` [CO-101244]: in the assay with SARS-CoV-2 [1], the “% Inh. (% Inhibition of SARS-CoV-2)” value is given as 60.2%.

For the compound `NC1(Cc2ccc(Cl)cc2)CCN(c2ncnc3[nH]ccc23)CC1` [CCT128930], the “% Inh. (% Inhibition of SARS-CoV-2)” value with SARS-CoV-2 [1] came out at 86.7%.

Take `Cn1c(Nc2ccc(C(F)(F)F)cc2)nc2cc(Oc3ccnc(-c4ncc(C(F)(F)F)[nH]4)c3)ccc21` [RAF265 (CHIR-265)]: the “% Inh. (% Inhibition of SARS-CoV-2)” value in the assay with SARS-CoV-2 [1] was 93.2%.

As to `CCN1/C(=C/C(C)=O)Sc2ccc(OC)cc21` [TG003], the “% Inh. (% Inhibition of SARS-CoV-2)” value in the assay on SARS-CoV-2 [1] was 55.4%.

On to `CCCCCC(O)c1cccc(OCc2ccc3ccccc3n2)c1` [REV-5901/L-655,238], for which the “% Inh. (% Inhibition of SARS-CoV-2)” value in the assay with SARS-CoV-2 [1] was 113.5%.

As for `CC[C@H](C)[C@@H]([C@@H](CC(=O)N1CCC[C@H]1[C@H](OC)[C@@H](C)C(=O)N[C@@H](Cc1ccccc1)c1nccs1)OC)N(C)C(=O)[C@@H](NC(=O)[C@H](C(C)C)N(C)C)C(C)C` [Dolastin-10], the “% Inh. (% Inhibition of SARS-CoV-2)” value in the assay with SARS-CoV-2 [1] is 64.3%.

Consider `O=C(CNC(=O)c1cccc(C(F)(F)F)c1)N[C@@H]1CCN(Cc2ccc(Cl)cc2)C1` [Teijin-compound-1], for which, in the assay with SARS-CoV-2 [1], the “% Inh. (% Inhibition of SARS-CoV-2)” value amounted to 85.7%.

Rupatadine Fumarate: the “% Inh. (% Inhibition of SARS-CoV-2)” value in the assay on SARS-CoV-2 [1] is 72.1%.

Turning to `CO[C@@H](C)Cn1c(=O)n(C)c2cnc3ccc(-c4cncc(C(C)(C)O)c4)cc3c21` [LY3023414], in the assay on SARS-CoV-2 [1], the “% Inh. (% Inhibition of SARS-CoV-2)” value amounted to 92.7%.

Consider `CC(=O)N1CCN(CCOc2ccc(C3CCN(C4=Nn5c(nnc5C(F)(F)F)CC4)CC3)cc2)CC1` [AZD3514], for which the “% Inh. (% Inhibition of SARS-CoV-2)” value in the assay with SARS-CoV-2 [1] is reported as 96.8%.

As to `COc1cc(Br)c(S(=O)(=O)Nc2ccc(Cl)c(O[C@@H]3CCN(C)C3)c2)cc1OC` [SB-657510], the “% Inh. (% Inhibition of SARS-CoV-2)” value with SARS-CoV-2 [1] was found to be 101.1%.

As a reminder, the inhibition is the relative decrease from the control value, in per cent. With `N#Cc1cn([C@@H]2O[C@H](CO)[C@@H](O)[C@H]2O)c2ncnc(N)c12` [toyocamycin], the inhibition at 10 µM with SARS-CoV-2 [2] worked out at 68.4%.

Take `O=C(O)CCCCC(=O)O` [adipic-acid]: in the assay with SARS-CoV-2 [2], the inhibition at 10 µM was found to be 55.9%.

Consider `O=CC=Cc1ccccc1` [cinnamaldehyde], for which the inhibition at 10 µM in the assay with SARS-CoV-2 [2] was 62.3%.

As to `CC1(C)CC(=O)c2c(C(F)(F)F)nn(-c3ccc(C(N)=O)c(N[C@H]4CC[C@H](O)CC4)c3)c2C1` [SNX-2112], the inhibition at 10 µM in the assay with SARS-CoV-2 [2] amounted to 96.6%.

Usually pIC50 stands for −log10 of the IC50, conventionally taken in molar units. High values mean a low IC50, low ones a high IC50. As to `O=C(NCc1ccncc1)C12CC3CC(C1)CC(c1ccc(Cl)cc1)(C3)C2` [ABC294640], in the assay on SARS-CoV-2 [2], the pIC50 is 4.42, the inhibition at 10 µM was 81.4% and the IC50 is 38 µM.

On to `C[C@@H]([C@@H](O)c1ccc(O)cc1)N1CCC(O)(c2ccccc2)CC1` [CP 101606], for which, in the assay on SARS-CoV-2 [2], the inhibition at 10 µM was 54.3%.

`CNCCCOc1cc(F)c(-c2c(Cl)nc3ncnn3c2N[C@@H](C)C(F)(F)F)c(F)c1` [Cevipabulin]: in the assay with SARS-CoV-2 [2], the inhibition at 10 µM was determined as 53.6%.

Turning to `C/C=C/C=C/C(=O)O` [sorbic-acid], in the assay on SARS-CoV-2 [2], the inhibition at 10 µM was 65.5%.

In the case of `COc1cccc([C@@H](C)NCCCc2ccccc2Cl)c1` [tecalcet], the inhibition at 10 µM in the assay with SARS-CoV-2 [2] is 78.1%.

Regarding `O=C1c2cccc3c2[C@H](CCC3)CN1[C@@H]1CN2CCC1CC2` [Palonosetron HCl], the inhibition at 10 µM in the assay with SARS-CoV-2 [2] turned out to be 57.4%.

As to `COC(=O)Nc1nc2ccc(C(=O)c3cccs3)cc2[nH]1` [nocodazole], the inhibition at 10 µM in the assay with SARS-CoV-2 [2] was 66.1%.

`COc1ccc(/C=C/C(=O)O)cc1` [trans-4-Methoxycinnamic-acid]: the inhibition at 10 µM in the assay with SARS-CoV-2 [2] came out at 53.6%.

With `C[N+](C)(C)CC(=O)O` [BETAINE HYDROCHLORIDE], the inhibition at 10 µM with SARS-CoV-2 [2] was determined as 95.7%.

Turning to `Oc1cccc(-c2c3nc(c(-c4cccc(O)c4)c4ccc([nH]4)c(-c4cccc(O)c4)c4nc(c(-c5cccc(O)c5)c5ccc2[nH]5)CC4)C=C3)c1` [Temoporfin], the inhibition at 10 µM with SARS-CoV-2 [2] worked out at 85.9%.

Turning to `CC1(C)S[C@@H]2[C@H](N3C(=O)[C@@H](c4ccccc4)NC3(C)C)C(=O)N2[C@H]1C(=O)O` [HETACILLIN POTASSIUM], in the assay on SARS-CoV-2 [2], the inhibition at 10 µM came out at 67.1%.

For `CCOc1cc2ncc(C#N)c(Nc3ccc(F)c(Cl)c3)c2cc1NC(=O)/C=C/CN(C)C` [Pelitinib (EKB-569), Pelitinib], the inhibition at 10 µM in the assay on SARS-CoV-2 [2] was 83.4%.

In the case of `Clc1ccccc1C(c1ccccc1)(c1ccccc1)n1ccnc1` [CLOTRIMAZOLE], the inhibition at 10 µM in the assay on SARS-CoV-2 [2] came to 81.7%.

With `C[C@H]1C[C@H]2[C@@H]3CCC4=CC(=O)C=C[C@]4(C)[C@@]3(F)[C@@H](O)C[C@]2(C)[C@@]1(O)C(=O)CO` [BETAMETHASONE], the inhibition at 10 µM in the assay on SARS-CoV-2 [2] came to 50.6%.

With `CN(C)CC/C=C1/c2ccccc2Sc2ccc(Cl)cc21` [CHLORPROTHIXENE HYDROCHLORIDE], the inhibition at 10 µM in the assay with SARS-CoV-2 [2] amounted to 55.6%.

Consider `Cc1cc(C)c2c(c1)[C@@H](N(Cc1cc(C(F)(F)F)cc(C(F)(F)F)c1)c1nnn(C)n1)CCCN2C[C@H]1CC[C@H](C(=O)O)CC1` [Evacetrapib (LY2484595), Evacetrapib], for which, in the assay with SARS-CoV-2 [2], the pIC50 is 4.57, the inhibition at 10 µM amounted to 94.9% and the IC50 is 26.9 µM.

On to `CCOc1cc2ncc(C#N)c(Nc3ccc(OCc4cccc(F)c4)c(Cl)c3)c2cc1NC(=O)/C=C/CN(C)C` [HKI-357], for which the inhibition at 10 µM in the assay on SARS-CoV-2 [2] turned out to be 77.7%.

Turning to `O=C(O)c1ccccc1O` [SALICYLIC ACID], the inhibition at 10 µM in the assay with SARS-CoV-2 [2] worked out at 71.3%.
